“And” between values parts separate entries of the source, which are not always exact repeats. Identical values can stand only once. Inconclusive results and toxic doses are left out.

For this test, the system named is P388 leukemia ip, CD2F1 mice, survival T/C. Kind of test: NCI In Vivo Anticancer Drug Screen. Data for tumor model P388 Leukemia (intraperitoneal) in CD2F1 (CDF1) mice. The conditions noted are these: endpoint: median survival time, higher = longer survival. Put shortly:
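Mice carrying the transplanted tumor received test compound or vehicle. Survival was recorded in each group, and the value is the treated-group measurement divided by that of the vehicle-treated control group.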

[1] abbreviates: dose: 50.0 mg/kg/injection, schedule: Q01DX005 (ip), vehicle: Klucel (hydroxypropylcellulose) (HPC).
Setting [2] is: dose: 100.0 mg/kg/injection, schedule: Q01DX005 (ip), vehicle: Klucel (hydroxypropylcellulose) (HPC).
Where [3] appears, read: dose: 200.0 mg/kg/injection, schedule: Q01DX005 (ip), vehicle: Klucel (hydroxypropylcellulose) (HPC).
Setting [4] is: dose: 50.0 mg/kg/injection, schedule: Q01DX005 (ip), vehicle: saline with Tween-80.
Setting [5] is: dose: 100.0 mg/kg/injection, schedule: Q01DX005 (ip), vehicle: saline with Tween-80.
Setting [6] is: dose: 200.0 mg/kg/injection, schedule: Q01DX005 (ip), vehicle: saline with Tween-80.
The mark [7] stands for this setting: dose: 50.0 mg/kg/injection, schedule: Q01DX009 (ip), vehicle: saline.
The mark [8] stands for this setting: dose: 100.0 mg/kg/injection, schedule: Q01DX009 (ip), vehicle: saline.
Where [9] appears, read: dose: 200.0 mg/kg/injection, schedule: Q01DX009 (ip), vehicle: saline.
[10] abbreviates: dose: 50.0 mg/kg/injection, schedule: Q01DX009 (ip), vehicle: saline with Tween-80.
Where [11] appears, read: dose: 100.0 mg/kg/injection, schedule: Q01DX009 (ip), vehicle: saline with Tween-80.
The mark [12] stands for this setting: dose: 200.0 mg/kg/injection, schedule: Q01DX009 (ip), vehicle: saline with Tween-80.

For the compound `CCOC(=O)c1nc2nc3cc(OC)c(OC)cc3cc2c(=O)[nH]1`, the T/C is 93 % of control (dose: 25.0 mg/kg/injection, schedule: Q01DX005 (ip), vehicle: Klucel (hydroxypropylcellulose) (HPC)); 87 % of control under setting [1]; 86 % of control and 89 % of control under setting [2]; 91 % of control under setting [3].

Turning to `OCC(O)C1OC(c2ccccc2)OC(CO)C1O` (stereo not drawn), the T/C reads like this: under setting [4], 100 % of control; under setting [5], 109 % of control; under setting [6], 102 % of control.

With `COc1ccc(-c2nc(C)[nH]c(=O)c2Cc2c(O)ccc3ccccc23)cc1`, the T/C reads like this: under setting [7], 102 % of control; under setting [8], 100 % of control; under setting [9], 99 % of control.

For `Cc1cc(N)n2c(nc3ccccc32)c1C#N`, the T/C runs as follows: (dose: 15.0 mg/kg/injection, schedule: Q01DX005 (ip), vehicle: saline with Tween-80) 102 % of control; (dose: 30.0 mg/kg/injection, schedule: Q01DX005 (ip), vehicle: saline with Tween-80) 100 % of control; (dose: 60.0 mg/kg/injection, schedule: Q01DX005 (ip), vehicle: saline with Tween-80) 93 % of control and 97 % of control.

`CCOC(=O)C(Cc1ccc(N(CCCl)CCCl)cc1)NP1(=O)NCCCO1` (stereo not drawn): the T/C by setting is: (dose: 14.0 mg/kg/injection, schedule: Q04DX003 (ip), vehicle: saline with Tween-80) 186 % of control; (dose: 22.0 mg/kg/injection, schedule: Q04DX003 (ip), vehicle: saline with Tween-80) 172 % of control; (dose: 33.0 mg/kg/injection, schedule: Q04DX003 (ip), vehicle: saline with Tween-80) 218 % of control; (dose: 50.0 mg/kg/injection, schedule: Q04DX003 (ip), vehicle: saline with Tween-80) 240 % of control.

Regarding `O=C(O)c1c(-c2ccc(Cl)cc2)c(-c2ccc(Cl)cc2)nn(CCO)c1=O`, the T/C reads like this: (dose: 25.0 mg/kg/injection, schedule: Q04DX002 (ip), vehicle: distilled water + Tween-80) 101 % of control; (dose: 50.0 mg/kg/injection, schedule: Q04DX002 (ip), vehicle: distilled water + Tween-80) 100 % of control; (dose: 100.0 mg/kg/injection, schedule: Q04DX002 (ip), vehicle: distilled water + Tween-80) 102 % of control; (dose: 200.0 mg/kg/injection, schedule: Q04DX002 (ip), vehicle: distilled water + Tween-80) 95 % of control.

`CCNc1nc(N)nc(N)n1`: the T/C under setting [7] was 102 % of control and 103 % of control and 104 % of control; the T/C (dose: 50.0 mg/kg/injection, schedule: Q04DX002 (ip), vehicle: saline) was 107 % of control; the T/C under setting [8] is 100 % of control and 102 % of control and 112 % of control; the T/C (dose: 100.0 mg/kg/injection, schedule: Q04DX002 (ip), vehicle: saline) was 98 % of control; the T/C under setting [9] is 100 % of control and 110 % of control and 120 % of control; the T/C (dose: 200.0 mg/kg/injection, schedule: Q04DX002 (ip), vehicle: saline) was 98 % of control. Also, under “dose: 400.0 mg/kg/injection, schedule: Q01DX009 (ip), vehicle: saline”, the T/C is 102 % of control and 110 % of control.

As to `Cc1cc(NS(=O)(=O)c2ccc(N=c3c4ccccc4n(-c4ccccc4)c4ccccc34)cc2)no1`, the T/C by setting is: under setting [4], 103 % of control; under setting [5], 92 % of control; under setting [6], 90 % of control.

Turning to `CC(=O)/C=C1/N(C)c2ccccc2C1(C)C`, the T/C by setting is: under setting [1], 100 % of control; under setting [2], 100 % of control; under setting [3], 99 % of control.

Turning to `NCc1c(O)ccc2ccccc12`, the T/C was 105 % of control under setting [10], 107 % of control under setting [11] and 108 % of control under setting [12].

`c1ccc(C(c2ccccc2)(c2cccs2)N2CCCCC2)cc1`: the T/C runs as follows: (dose: 100.0 mg/kg/injection, schedule: Q01DX001 (ip), vehicle: Klucel (hydroxypropylcellulose) (HPC)) 99 % of control; (dose: 200.0 mg/kg/injection, schedule: Q01DX001 (ip), vehicle: Klucel (hydroxypropylcellulose) (HPC)) 94 % of control; (dose: 400.0 mg/kg/injection, schedule: Q01DX001 (ip), vehicle: Klucel (hydroxypropylcellulose) (HPC)) 96 % of control.

With `O=C(O)c1cccc(C(=O)O)c1O`, the T/C is 102 % of control (dose: 50.0 mg/kg/injection, schedule: Q01DX001 (ip), vehicle: saline with Tween-80); 100 % of control under setting [10]; 105 % of control (dose: 100.0 mg/kg/injection, schedule: Q01DX001 (ip), vehicle: saline with Tween-80); 103 % of control under setting [11]; 110 % of control (dose: 200.0 mg/kg/injection, schedule: Q01DX001 (ip), vehicle: saline with Tween-80); 94 % of control under setting [12].

For the compound `Cc1cnc(C2OCCO2)c2cccc(N)c12`, the T/C is 104 % of control (dose: 50.0 mg/kg/injection, schedule: Q01DX009 (ip), vehicle: Klucel (hydroxypropylcellulose) (HPC)); 105 % of control (dose: 100.0 mg/kg/injection, schedule: Q01DX009 (ip), vehicle: Klucel (hydroxypropylcellulose) (HPC)); 112 % of control (dose: 200.0 mg/kg/injection, schedule: Q01DX009 (ip), vehicle: Klucel (hydroxypropylcellulose) (HPC)).

Take `CC1(C)N=C(N)N=C(N)N1c1cccc(CNc2ccc(S(N)(=O)=O)cc2)c1`: the T/C by setting is: (dose: 7.5 mg/kg/injection, schedule: Q01DX005 (ip), vehicle: Klucel (hydroxypropylcellulose) (HPC)) 102 % of control; (dose: 15.0 mg/kg/injection, schedule: Q01DX005 (ip), vehicle: Klucel (hydroxypropylcellulose) (HPC)) 100 % of control; (dose: 30.0 mg/kg/injection, schedule: Q01DX005 (ip), vehicle: Klucel (hydroxypropylcellulose) (HPC)) 102 % of control.

Regarding `CC(C)c1cccc(O)c1O`, under setting [8], the T/C is 97 % of control.

With `N#CC(Cc1ccccc1Cl)C(=O)O` (stereo not drawn), the T/C is 99 % of control (dose: 12.5 mg/kg/injection, schedule: Q01DX009 (none), vehicle: saline); 92 % of control (dose: 25.0 mg/kg/injection, schedule: Q01DX009 (none), vehicle: saline); 90 % of control (dose: 50.0 mg/kg/injection, schedule: Q01DX009 (none), vehicle: saline); 90 % of control (dose: 100.0 mg/kg/injection, schedule: Q01DX009 (none), vehicle: saline).

As to `Clc1ncnc2c1ncn2C1CCCO1` (stereo not drawn), the T/C runs as follows: under setting [7], 110 % of control; under setting [8], 115 % of control.

On to `CN(CN1C(=O)CCC1=O)CN1C(=O)CCC1=O`, for which the T/C is, setting by setting: (dose: 30.0 mg/kg/injection, schedule: Q01DX005 (ip), vehicle: saline) 106 % of control; (dose: 60.0 mg/kg/injection, schedule: Q01DX005 (ip), vehicle: saline) 106 % of control and 110 % of control; (dose: 120.0 mg/kg/injection, schedule: Q01DX005 (ip), vehicle: saline) 108 % of control; (dose: 240.0 mg/kg/injection, schedule: Q01DX005 (ip), vehicle: saline) 119 % of control.

For `C/C=C(\C)C(=O)OC1CC(C)(O)C(=O)C(OC(=O)/C(C)=C/C)C2(C)CCC(O)(C(C)C)C12` (stereo not drawn), the T/C under setting [10] is 105 % of control; the T/C under setting [11] is 101 % of control; the T/C under setting [12] was 100 % of control; the T/C (dose: 400.0 mg/kg/injection, schedule: Q01DX009 (ip), vehicle: saline with Tween-80) was 95 % of control.

With `Cc1ccc(NC(=O)N2CC2)cc1NC(=O)N1CC1`, the T/C by setting is: (dose: 0.78 mg/kg/injection, schedule: Q01DX009 (ip), vehicle: Klucel (hydroxypropylcellulose) (HPC)) 112 % of control; (dose: 3.12 mg/kg/injection, schedule: Q01DX009 (ip), vehicle: Klucel (hydroxypropylcellulose) (HPC)) 154 % of control; (dose: 6.25 mg/kg/injection, schedule: Q01DX009 (ip), vehicle: Klucel (hydroxypropylcellulose) (HPC)) 107 % of control and 90 % of control.

Turning to `NC(=O)c1ccc(N=Nc2c(O)c3ccccc3[nH]c2=O)cc1`, the T/C is, setting by setting: (dose: 50.0 mg/kg/injection, schedule: Q01DX005 (ip), vehicle: saline + Tween-80 + alcohol) 105 % of control; (dose: 100.0 mg/kg/injection, schedule: Q01DX005 (ip), vehicle: saline + Tween-80 + alcohol) 93 % of control; (dose: 200.0 mg/kg/injection, schedule: Q01DX005 (ip), vehicle: saline + Tween-80 + alcohol) 89 % of control.
